Common to all, as to assay type: biochemical
Test [1] concerns the target T1, ITK (Homo sapiens, UniProt Q08881).
T1 sequence (Q08881 1-620): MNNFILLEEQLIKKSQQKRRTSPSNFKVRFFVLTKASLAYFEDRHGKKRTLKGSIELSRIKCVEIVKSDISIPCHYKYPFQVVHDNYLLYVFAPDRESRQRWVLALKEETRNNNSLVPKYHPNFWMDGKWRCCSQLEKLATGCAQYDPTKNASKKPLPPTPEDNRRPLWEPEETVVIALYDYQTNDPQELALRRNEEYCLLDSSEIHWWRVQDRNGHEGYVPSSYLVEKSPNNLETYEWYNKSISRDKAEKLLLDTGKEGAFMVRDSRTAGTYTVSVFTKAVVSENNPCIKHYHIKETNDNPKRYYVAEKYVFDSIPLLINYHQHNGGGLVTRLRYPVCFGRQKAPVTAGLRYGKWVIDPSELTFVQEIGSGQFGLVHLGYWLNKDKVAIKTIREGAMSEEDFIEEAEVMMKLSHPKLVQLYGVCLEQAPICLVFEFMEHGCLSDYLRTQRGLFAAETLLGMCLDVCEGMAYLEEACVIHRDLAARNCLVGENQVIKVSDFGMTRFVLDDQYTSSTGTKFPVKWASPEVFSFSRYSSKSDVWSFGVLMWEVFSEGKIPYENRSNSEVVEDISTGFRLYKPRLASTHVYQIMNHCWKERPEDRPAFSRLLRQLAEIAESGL
Kind of test: Inhibition of a panel of kinases, in vitro HotSpot kinase assay: ITK. As for the experimental part: The degree of inhibition of a panel of kinases is determined using the in vitro HotSpot kinase assay (purified enzymes, ^33P-ATP, an appropriate substrate and 1 μM ATP).

For test [2], the target named is T2, BTK-WT (Homo sapiens, UniProt Q06187).
T2 construct: purified from insect cells as a full-length construct containing an N-terminal 6X-His tag; His6 (N); made in house; host or cells: insect cells (baculovirus Sf21 in Method B)
Kind of test: Btk in vitro inhibitory activity (one of Method A TR-FRET, Method B electrophoretic mobility shift, Method C radiometric filter binding). Conditions: read-out: IC50 BTK-WT. For orientation: A gel shift assay detects complexes by their altered migration in electrophoresis.

In test [3] the target is LCK (Homo sapiens, UniProt P06239). Briefly: Inhibition of a panel of kinases, in vitro HotSpot kinase assay: LCK. Conditions: read-out: IC50 LCK.
Where [4] appears, read: Table 13, A compounds, 1 μM ATP.

Where two headings read alike, the source gives them in different places.

T2 sequence (Q06187 whole entry): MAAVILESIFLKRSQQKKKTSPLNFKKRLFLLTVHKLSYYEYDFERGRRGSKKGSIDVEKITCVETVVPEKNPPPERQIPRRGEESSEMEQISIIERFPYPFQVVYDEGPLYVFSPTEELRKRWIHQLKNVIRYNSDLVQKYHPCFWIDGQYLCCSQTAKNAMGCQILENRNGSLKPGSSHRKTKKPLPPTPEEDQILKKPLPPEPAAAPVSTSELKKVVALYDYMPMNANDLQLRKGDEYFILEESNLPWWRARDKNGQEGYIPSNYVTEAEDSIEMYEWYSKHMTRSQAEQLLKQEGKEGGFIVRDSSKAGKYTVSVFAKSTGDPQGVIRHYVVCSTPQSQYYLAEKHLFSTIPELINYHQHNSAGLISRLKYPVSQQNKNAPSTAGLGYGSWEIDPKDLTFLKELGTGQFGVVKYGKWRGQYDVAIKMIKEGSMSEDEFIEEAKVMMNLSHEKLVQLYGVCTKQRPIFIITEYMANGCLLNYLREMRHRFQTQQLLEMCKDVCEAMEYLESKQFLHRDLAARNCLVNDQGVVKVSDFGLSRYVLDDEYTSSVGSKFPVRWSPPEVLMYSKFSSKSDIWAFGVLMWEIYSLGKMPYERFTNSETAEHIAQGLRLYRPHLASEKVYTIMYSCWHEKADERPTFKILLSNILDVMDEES
LCK, sequence (P06239 whole entry): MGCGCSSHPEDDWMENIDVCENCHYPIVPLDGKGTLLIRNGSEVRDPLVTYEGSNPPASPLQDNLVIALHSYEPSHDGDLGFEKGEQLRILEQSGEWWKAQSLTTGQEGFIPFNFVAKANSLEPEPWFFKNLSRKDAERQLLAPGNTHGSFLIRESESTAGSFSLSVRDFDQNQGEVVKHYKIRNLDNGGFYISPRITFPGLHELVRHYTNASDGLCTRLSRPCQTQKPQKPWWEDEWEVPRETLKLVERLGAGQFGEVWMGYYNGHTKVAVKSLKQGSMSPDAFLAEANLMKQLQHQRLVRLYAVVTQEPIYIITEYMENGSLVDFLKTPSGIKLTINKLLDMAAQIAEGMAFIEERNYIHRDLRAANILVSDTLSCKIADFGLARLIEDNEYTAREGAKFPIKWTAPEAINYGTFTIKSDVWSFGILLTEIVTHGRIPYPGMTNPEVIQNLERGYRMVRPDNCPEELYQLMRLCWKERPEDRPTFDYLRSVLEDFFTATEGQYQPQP

Turning to `CN1CCN(Cc2ccc(Nc3nc(N4CCC[C@@H](n5ccc6cc(C7CC7)ccc6c5=O)C4)cnc3C(N)=O)cc2)CC1` [Example A-111, 5-[(3R)-3-(6-cyclopropyl-1-oxo-1,2-dihydroisoquinolin-2-yl)piperidin-1-yl]-3-({4-[(4-methylpiperazin-1-yl)meth-yl]phenyl}amino)pyrazine-2-carboxamide], the IC50 in test [1] (setting [4]) was 100 to 1000 nM; in test [2] (Table 13, A compounds), not above 10 nM; in test [3] (setting [4]), 100 to 1000 nM.

With `C=CC(=O)N1CC[C@@H](N(C)c2cnc(C(N)=O)c(Nc3cnn(CCOC)c3)n2)C1` [Example E-110, (R)-5-((1-acryloylpyrrolidin-3-yl)(methyl)amino)-3-(1-(2-methoxyethyl)-1H-pyrazol-4-ylamino)pyrazine-2-carboxamide], the IC50 is not above 10 nM in test [1] (E compounds, Table 17); not above 10 nM in test [2] (E compounds, Table 17); 1000 to 10000 nM in test [3] (E compounds, Table 17).

As to `C=CC(=O)N1CCC[C@@H](N(C)c2cnc(C(N)=O)c(Nc3ccc(C4CCN(C5CCCC5)CC4)cc3)n2)C1` [Example E-125, (R)-5-((1-acryloylpiperidin-3-yl)(methyl)amino)-3-(4-(1-cyclopentylpiperidin-4-yl)phenylamino)pyrazine-2-carboxamide], the IC50 in test [1] (E compounds, Table 17) was not above 10 nM; in test [2] (E compounds, Table 17), not above 10 nM; in test [3] (E compounds, Table 17) it was 10 to 100 nM.

As to `Cc1cc(Nc2nc(N3CCC[C@@H](NC(=O)N4Cc5ccccc5C4=O)C3)cnc2C(N)=O)sn1` [Example A-183, N-[(3R)-1-{5-carbamoyl-6-[(3-methyl-1,2-thiazol-5-yl)amino]pyrazin-2-yl}piperidin-3-yl]-1-oxo-2,3-dihydro-1H-isoindole-2-carboxamide], the IC50 in test [1] (setting [4]) was 10 to 100 nM; in test [2] (Table 13, A compounds), not above 10 nM; in test [3] (setting [4]) it was 10 to 100 nM.

With `C=CC(=O)N1CCC[C@@H](N(C)c2cnc(C(N)=O)c(Nc3ccc(C4(C)CCN(C5CCCC5)CC4)cc3)n2)C1` [Example E-103, (R)-5-((1-acryloylpiperidin-3-yl)(methyl)amino)-3-(4-(1-cyclopentyl-4-methylpiperidin-4-yl)phenylamino)pyrazine-2-carboxamide], the half-maximal inhibitory concentration (IC50) in test [1] (E compounds, Table 17) is not above 10 nM; in test [2] (E compounds, Table 17) it was not above 10 nM; in test [3] (E compounds, Table 17), less than 10 nM.

With `C[C@@H]1[C@H](NC(=O)c2ccc(C3CC3)cc2)CCCN1c1cnc(C(N)=O)c(Nc2ccc(N3CCN(C4CCCC4)C[C@@H]3C)cc2)n1` [Example E-137, 3-((4-((S)-4-cyclopentyl-2-methylpiperazin-1-yl)phenyl)amino)-5-((2R,3R)-3-(4-cyclopropylbenzamido)-2-methyipiperidin-1-yl)pyrazine-2-carboxamide], the IC50 was 10 to 100 nM in test [1] (E compounds, Table 17); not above 10 nM in test [2] (E compounds, Table 17); 10 to 100 nM in test [3] (E compounds, Table 17).

Consider `C=CC(=O)N1CCC[C@@H](Nc2nnc(C(N)=O)c(Nc3ccc(-c4ncccn4)cc3)n2)C1` [Example E-41, (R)-3-(1-acryloylpiperidin-3-ylamino)-5-(4-(pyrimidin-2-yl)phenylamino)-1,2,4-triazine-6-carboxamide], for which the IC50 in test [1] (E compounds, Table 17) is 10 to 100 nM; in test [2] (E compounds, Table 17) it was not above 10 nM; in test [3] (E compounds, Table 17), 100 to 1000 nM.

For the compound `C=CC(=O)N[C@@H]1CCCN(c2cnc(C(N)=O)c(Nc3cc(C)ns3)n2)[C@@H]1C` [Example E-97, 5-((2R,3R)-3-acrylamido-2-methylpiperidin-1-yl)-3-(3-methylisothiazol-5-ylamino)pyrazine-2-carboxamide], the IC50 in test [1] (E compounds, Table 17) is 10 to 100 nM; in test [2] (E compounds, Table 17) it was not above 10 nM; in test [3] (E compounds, Table 17) it was 100 to 1000 nM.

With `CC(C)c1ccc(Nc2nc(N3CCC[C@@H](N4CCC[C@@H](Nc5cc(Cl)cc(C(F)(F)F)c5)C4=O)C3)nnc2C(N)=O)cc1` [Example E-128, 3-((3R,3′R)-3-((3-chloro-5-(trifluoromethyl)phenyl)amino)-2-oxo-[1,3′-bipiperidin]-1′-yl)-5-((4-isopropylphenyl)amino)-1,2,4-triazine-6-carboxamide], the IC50 in test [1] (E compounds, Table 17) lay within 10 to 100 nM; in test [2] (E compounds, Table 17) it was 100 to 1000 nM; in test [3] (E compounds, Table 17) it was 10 to 100 nM.

One may read the IC50 as the concentration that gives 50% inhibition.

Values taken from patent publication US20210070748A1, “INHIBITORS OF BRUTONS TYROSINE KINASE” (Pharmacyclics LLC, priority 2015, published 2021).
